# From publication PMC12298351, “Novel 3,19-(N-Phenyl-3-(4-fluorophenyl)-pyrazole) Acetal of Andrographolide Promotes Cell Cycle Arrest and Apoptosis in MDA-MB-231 Breast Cancer Cells” (Pharmaceuticals, 2025)
# Columns and labels:
# [1] = test system: HOP-62; conditions: for Total growth inhibition (TGI) / CC50: HOP-62, Non-Small Cell Lung; for GI50: HOP-62, Non-Small-Cell Lung; for CC50: read-out: 50% lethal concentration (LC50)
# [2] = test system: NCI-H460; conditions: for GI50: NCI-H460, Non-Small-Cell Lung
# [3] = test system: MDA-MB-435; conditions: MDA-MB-435, Melanoma; for CC50: read-out: 50% lethal concentration (LC50)
# [4] = test system: RXF 393; conditions: RXF 393, Renal; for CC50: read-out: 50% lethal concentration (LC50)
# [5] = DPPH radical scavenging assay; conditions: 25 µM test compound, 0.1 mM DPPH, acetonitrile, 30 min
# Procedure: A stable free radical DPPH (2,2-Diphenyl-1-picrylhydrazyl) assay was employed to test the antioxidant activity of all the synthesized compounds. Concisely, 25 µM of the test compounds were dissolved in acetonitrile and combined with 0.1 mM of DPPH (in acetonitrile) in a 1:2 ratio (80 µL and 160 µL). Then, the mixture was left undisturbed in the dark for 30 min at room temperature. After 30 min, the absorbance of the solutions was instantly measured at 517 nm using a Varioskan Multiplate Reader (Thermo Fisher Scientific, Mumbai, India). Ascorbic acid (in acetonitrile) was used as the positive control, and andrographolide and isoandrogapholide (in acetonitrile) were used as the standards. The following equation was used to determine the DPPH radical scavenging activity:% Radical scavenging activity = (Ac − As)/Ac × 100 where Ac = the absorbance of the blank (DPPH solution), and As = the absorbance of the test samples
# [6] = test system: NCI/ADR-RES; conditions: for GI50 / Total growth inhibition (TGI): Ovarian; for CC50: read-out: 50% lethal concentration (LC50), Ovarian
# [7] = test system: 786-0; conditions: 786-0, Renal; for CC50: read-out: 50% lethal concentration (LC50)
# [8] = test system: SK-MEL-28; conditions: SK-MEL-28, Melanoma; for CC50: read-out: 50% lethal concentration (LC50)
# [9] = test system: A498; conditions: A498, Renal; for CC50: read-out: 50% lethal concentration (LC50)
# [10] = test system: A549/ATCC; conditions: for Total growth inhibition (TGI): Non-Small Cell Lung; for GI50: Non-Small-Cell Lung; for CC50: read-out: 50% lethal concentration (LC50), Non-Small Cell Lung
# [11] = test system: SF-539; conditions: SF-539, CNS; for CC50: read-out: 50% lethal concentration (LC50)
# [12] = test system: NCI-H226; conditions: for Total growth inhibition (TGI) / CC50: NCI-H226, Non-Small Cell Lung; for GI50: NCI-H226, Non-Small-Cell Lung; for CC50: read-out: 50% lethal concentration (LC50)
# [13] = test system: HS 578T; conditions: for GI50 / Total growth inhibition (TGI): Breast; for CC50: read-out: 50% lethal concentration (LC50), Breast
# [14] = test system: MCF7; conditions: MCF7, Breast; for CC50: read-out: 50% lethal concentration (LC50)
# [15] = test system: DU-145; conditions: DU-145, Prostate; for CC50: read-out: 50% lethal concentration (LC50)
# [16] = test system: HCT-116; assay type: cell-based; conditions: HCT-116, Colon
# [17] = test system: UACC-62; conditions: UACC-62, Melanoma; for CC50: read-out: 50% lethal concentration (LC50)
# [18] = test system: MALME-3M; conditions: Melanoma
# [19] = test system: HOP-92; conditions: for Total growth inhibition (TGI) / CC50: HOP-92, Non-Small Cell Lung; for GI50: HOP-92, Non-Small-Cell Lung; for CC50: read-out: 50% lethal concentration (LC50)
# [20] = test system: HL-60(TB); conditions: for GI50 / Total growth inhibition (TGI): Leukemia; for CC50: read-out: 50% lethal concentration (LC50), Leukemia
# [21] = test system: UO-31; conditions: UO-31, Renal; for CC50: read-out: 50% lethal concentration (LC50)
# [22] = test system: SR; conditions: for GI50 / Total growth inhibition (TGI): Leukemia; for CC50: read-out: 50% lethal concentration (LC50), Leukemia
# [23] = test system: NCI-H522; conditions: for Total growth inhibition (TGI) / CC50: NCI-H522, Non-Small Cell Lung; for GI50: NCI-H522, Non-Small-Cell Lung; for CC50: read-out: 50% lethal concentration (LC50)
# [24] = test system: CCRF-CEM; conditions: for GI50 / Total growth inhibition (TGI): Leukemia; for CC50: read-out: 50% lethal concentration (LC50), Leukemia
# [25] = test system: ACHN; conditions: for GI50 / Total growth inhibition (TGI): Renal; for CC50: read-out: 50% lethal concentration (LC50), Renal
# [26] = test system: SNB-75; conditions: SNB-75, CNS; for CC50: read-out: 50% lethal concentration (LC50)
# [27] = test system: OVCAR-8; conditions: OVCAR-8, Ovarian; for CC50: read-out: 50% lethal concentration (LC50)
smiles,measurement,setting,value
C=C1CCC2C3(C)COC(c4cn(-c5ccccc5)nc4-c4cccc(Cl)c4)OC3CCC2(C)C1CC=C1C(=O)OCC1O (stereo not drawn) [1d],Total growth inhibition (TGI),[1],4.29 µM
same,GI50,[1],1.78 µM
same,CC50,[1],> 100 µM
same,Total growth inhibition (TGI),"[2]; NCI-H460, Non-Small Cell Lung",3.34 µM
same,GI50,[2],1.68 µM
same,CC50,"[2]; read-out: 50% lethal concentration (LC50), NCI-H460, Non-Small Cell Lung",6.66 µM
same,GI50,[3],1.56 µM
same,Total growth inhibition (TGI),[3],3.19 µM
same,CC50,[3],6.49 µM
same,GI50,[4],1.05 µM
same,Total growth inhibition (TGI),[4],2.31 µM
same,CC50,[4],5.07 µM
same,% DPPH radical scavenging activity,[5],59.32%
same,GI50,[6],1.88 µM
same,Total growth inhibition (TGI),[6],4.77 µM
same,CC50,[6],> 100 µM
same,GI50,[7],2.31 µM
same,Total growth inhibition (TGI),[7],6.1 µM
same,CC50,[7],83.4 µM
same,GI50,[8],1.8 µM
same,Total growth inhibition (TGI),[8],3.37 µM
same,CC50,[8],6.33 µM
same,GI50,[9],2.9 µM
same,Total growth inhibition (TGI),[9],11.4 µM
same,CC50,[9],38.1 µM
same,Total growth inhibition (TGI),[10],11.3 µM
same,GI50,[10],2.82 µM
same,CC50,[10],69.1 µM
same,GI50,[11],1.63 µM
same,Total growth inhibition (TGI),[11],3.02 µM
same,CC50,[11],5.57 µM
same,Total growth inhibition (TGI),[12],3.37 µM
same,GI50,[12],1.76 µM
same,CC50,[12],6.46 µM
same,GI50,[13],1.91 µM
same,Total growth inhibition (TGI),[13],4.85 µM
same,CC50,[13],> 100 µM
same,GI50,[14],1.48 µM
same,Total growth inhibition (TGI),[14],66.8 µM
same,CC50,[14],> 100 µM
same,GI50,[15],1.88 µM
same,Total growth inhibition (TGI),[15],3.98 µM
same,CC50,[15],8.43 µM
same,GI50,[16],1.04 µM
same,Total growth inhibition (TGI),[16],3.48 µM
same,CC50,[16]; read-out: 50% lethal concentration (LC50),45.2 µM
same,GI50,[17],1.71 µM
same,Total growth inhibition (TGI),[17],3.42 µM
same,CC50,[17],6.83 µM
same,GI50,[18],1.47 µM
same,Total growth inhibition (TGI),[18],2.85 µM
same,Total growth inhibition (TGI),[19],3.11 µM
same,GI50,[19],1.56 µM
same,CC50,[19],6.2 µM
same,GI50,[20],1.38 µM
same,Total growth inhibition (TGI),[20],4.97 µM
same,CC50,[20],> 100 µM
same,GI50,[21],1.3 µM
same,Total growth inhibition (TGI),[21],2.71 µM
same,CC50,[21],5.63 µM
same,GI50,[22],1.29 µM
same,Total growth inhibition (TGI),[22],4.03 µM
same,CC50,[22],> 100 µM
same,Total growth inhibition (TGI),[23],2.95 µM
same,GI50,[23],1.54 µM
same,CC50,[23],5.65 µM
same,GI50,[24],1.32 µM
same,Total growth inhibition (TGI),[24],16.3 µM
same,CC50,[24],> 100 µM
same,GI50,[25],1.64 µM
same,Total growth inhibition (TGI),[25],3.01 µM
same,CC50,[25],5.52 µM
same,GI50,[26],1.12 µM
same,Total growth inhibition (TGI),[26],3.14 µM
same,CC50,[26],8.84 µM
same,GI50,[27],1.53 µM
same,Total growth inhibition (TGI),[27],3.44 µM
same,CC50,[27],> 100 µM
C=C1CCC2C3(C)COC(c4cn(-c5ccccc5)nc4-c4cccc(F)c4)OC3CCC2(C)C1CC=C1C(=O)OCC1O (stereo not drawn) [1c],Total growth inhibition (TGI),[1],3.86 µM
same,GI50,[1],1.74 µM
same,CC50,[1],8.55 µM
same,Total growth inhibition (TGI),"[2]; NCI-H460, Non-Small Cell Lung",3.59 µM
same,GI50,[2],1.81 µM
same,GI50,[3],1.5 µM
same,Total growth inhibition (TGI),[3],3.08 µM
same,CC50,[3],6.32 µM
same,GI50,[4],1.64 µM
same,Total growth inhibition (TGI),[4],3.12 µM
same,CC50,[4],5.94 µM
same,% DPPH radical scavenging activity,[5],58.33%
same,GI50,[6],1.77 µM
same,Total growth inhibition (TGI),[6],3.99 µM
same,CC50,[6],8.99 µM
same,GI50,[7],1.78 µM
same,Total growth inhibition (TGI),[7],3.59 µM
same,CC50,[7],7.24 µM
same,GI50,[8],1.77 µM
same,Total growth inhibition (TGI),[8],3.35 µM
same,CC50,[8],6.36 µM
same,GI50,[9],4.13 µM
same,Total growth inhibition (TGI),[9],18.4 µM
same,CC50,[9],53.3 µM
same,Total growth inhibition (TGI),[10],25.3 µM
same,GI50,[10],3.88 µM
same,CC50,[10],> 100 µM
same,GI50,[11],1.77 µM
same,Total growth inhibition (TGI),[11],3.17 µM
same,CC50,[11],5.68 µM
same,Total growth inhibition (TGI),[12],3.19 µM
same,GI50,[12],1.67 µM
same,CC50,[12],6.08 µM
same,GI50,[13],1.66 µM
same,Total growth inhibition (TGI),[13],3.18 µM
same,CC50,[13],6.12 µM
same,GI50,[14],1.63 µM
same,Total growth inhibition (TGI),[14],5.49 µM
same,CC50,[14],50.1 µM
same,GI50,[15],1.97 µM
same,Total growth inhibition (TGI),[15],4.25 µM
same,CC50,[15],9.15 µM
same,GI50,[16],3.48 µM
same,Total growth inhibition (TGI),[16],1.59 µM
same,GI50,[17],1.65 µM
same,Total growth inhibition (TGI),[17],3.21 µM
same,CC50,[17],6.22 µM
same,GI50,[18],1.87 µM
same,Total growth inhibition (TGI),[18],3.5 µM
same,Total growth inhibition (TGI),[19],3.03 µM
same,GI50,[19],1.53 µM
same,CC50,[19],6.02 µM
same,GI50,[20],0.76 µM
same,Total growth inhibition (TGI),[20],> 100 µM
same,CC50,[20],> 100 µM
same,GI50,[21],1.78 µM
same,Total growth inhibition (TGI),[21],2.77 µM
same,CC50,[21],5.46 µM
same,GI50,[22],2.2 µM
same,Total growth inhibition (TGI),[22],> 100 µM
same,CC50,[22],> 100 µM
same,Total growth inhibition (TGI),[23],3.08 µM
same,GI50,[23],1.52 µM
same,CC50,[23],6.24 µM
same,GI50,[24],2.06 µM
same,Total growth inhibition (TGI),[24],> 100 µM
same,CC50,[24],> 100 µM
same,GI50,[25],1.8 µM
same,Total growth inhibition (TGI),[25],3.53 µM
same,CC50,[25],6.94 µM
same,Total growth inhibition (TGI),[26],3.55 µM
same,CC50,[26],5.82 µM
same,GI50,[27],1.77 µM
same,Total growth inhibition (TGI),[27],3.88 µM
same,CC50,[27],8.5 µM
